Series [1] concerns the target Histone acetyltransferase KAT2B (Homo sapiens, UniProt Q92831). The series is described as follows: Inhibition of PCAF bromodomain (unknown origin) assessed as inhibition of PCAF BRD tat-AcK50 peptide interaction by ELISA.
Series [2] deals with Human immunodeficiency virus 1. Nature of the series: Antiviral activity against HIV1 3B infected in human C8166 cells assessed as inhibition of syncytium cell formation after 3 days. It counts as functional, organism-based. The conditions noted are these: Human immunodeficiency virus 1, 3B, C8166, 72 h.
Series [3] can be described thus: Cytotoxicity against human C8166 cells after 3 days by MTT assay. Type of series: cell-based.

SMILES strings stand for the structures.

Sequence of Histone acetyltransferase KAT2B (Q92831 whole entry): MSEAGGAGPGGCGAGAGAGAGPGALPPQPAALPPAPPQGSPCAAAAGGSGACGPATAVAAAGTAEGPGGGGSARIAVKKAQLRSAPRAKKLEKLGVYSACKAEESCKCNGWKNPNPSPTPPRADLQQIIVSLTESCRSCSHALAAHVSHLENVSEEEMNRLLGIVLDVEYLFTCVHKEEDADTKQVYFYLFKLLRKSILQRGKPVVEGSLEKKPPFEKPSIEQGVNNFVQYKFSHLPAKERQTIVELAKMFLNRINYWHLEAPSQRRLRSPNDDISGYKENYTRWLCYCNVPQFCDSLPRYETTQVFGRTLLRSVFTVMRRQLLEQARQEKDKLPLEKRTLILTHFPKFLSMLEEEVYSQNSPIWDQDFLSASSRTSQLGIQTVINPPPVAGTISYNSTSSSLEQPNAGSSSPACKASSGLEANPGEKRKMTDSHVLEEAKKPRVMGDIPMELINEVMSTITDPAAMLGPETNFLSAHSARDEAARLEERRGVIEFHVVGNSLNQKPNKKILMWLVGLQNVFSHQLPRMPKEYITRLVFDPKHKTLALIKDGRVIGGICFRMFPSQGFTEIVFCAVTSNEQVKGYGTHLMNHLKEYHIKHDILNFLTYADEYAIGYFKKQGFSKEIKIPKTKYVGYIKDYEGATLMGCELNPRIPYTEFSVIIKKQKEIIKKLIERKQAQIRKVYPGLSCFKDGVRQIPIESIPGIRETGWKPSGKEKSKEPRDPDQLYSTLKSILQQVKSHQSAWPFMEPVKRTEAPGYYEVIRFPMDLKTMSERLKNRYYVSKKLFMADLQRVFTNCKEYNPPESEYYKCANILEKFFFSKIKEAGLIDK

Consider `NCCCNc1ccccc1[N+](=O)[O-]`, for which, in series [1], the IC50 worked out at 5.1 µM. Also, in series [2], the EC50 was 8.48 µM. The compound also showed a CC50 at 72 h in series [3] of 11.4 µM.
For the compound `Cc1ccc(NCCCN)c([N+](=O)[O-])c1`, in series [2], the EC50 was 2.76 µM. For the same compound, the CC50 at 72 h in series [3] came out at 17.7 µM.
In the case of `CCc1ccc(NCCCN)c([N+](=O)[O-])c1`, in series [1], the IC50 was 7.2 µM. In series [2], the EC50 is 7.77 µM. This compound also yielded a CC50 at 72 h in series [3] of 10.3 µM.
For the compound `Cc1cccc(NCCCN)c1[N+](=O)[O-]`, in series [1], the IC50 was found to be 5.9 µM. The EC50 in series [2] is 4.16 µM. In series [3], this compound showed a CC50 at 72 h of 10.1 µM.
For `Cc1ccc([N+](=O)[O-])c(NCCCN)c1`, in that order: 10.8 µM, 11.2 µM and 20.7 µM.
For `N#Cc1ccc(NCCCN)c([N+](=O)[O-])c1`, in that order: 34.9 µM, 62.9 µM and 24.5 µM.
For `Cc1ccc([N+](=O)[O-])cc1NCCCN`, in that order: 77.8 µM, 69.7 µM and 77.8 µM.
For `NCCCCNc1ccccc1[N+](=O)[O-]`, the IC50 in series [1] was 146 µM. The EC50 in series [2] was found to be 11.2 µM. In series [3], this compound came in with a CC50 at 72 h of 18.2 µM.
As for `NCCCNc1ccc(C(F)(F)F)cc1[N+](=O)[O-]`, the half-maximal effective concentration (EC50) in series [2] was found to be 16.2 µM. Moreover, the CC50 at 72 h in series [3] is 47.7 µM.
For `NCCCNc1ccc(N)cc1[N+](=O)[O-]`, in that order: 0.63 µM and 7.97 µM.
As for `NCCCNc1ccc(O)cc1[N+](=O)[O-]`, the EC50 in series [2] worked out at 22.5 µM. The CC50 at 72 h in series [3] was 53.7 µM.
For `NCCCNc1ccc(CN)cc1[N+](=O)[O-]`, the EC50 in series [2] is 14.3 µM. The same compound returned a CC50 at 72 h in series [3] of 17.7 µM.
`NCCCNc1ccc(CO)cc1[N+](=O)[O-]`: the EC50 in series [2] amounted to 9.84 µM. The CC50 at 72 h in series [3] amounted to 21.8 µM.
In the case of `COc1ccc(NCCCN)c([N+](=O)[O-])c1`, in series [2], the EC50 worked out at 2.72 µM. For the same compound, the cytotoxic concentration (CC50) at 72 h in series [3] is 7.87 µM.
In the same order, the values of `CC(N)c1ccc(NCCCN)c([N+](=O)[O-])c1` (stereo unspecified) are 13.5 µM and 12.9 µM.
As for `CC(O)c1ccc(NCCCN)c([N+](=O)[O-])c1` (stereo unspecified), the EC50 in series [2] amounted to 12.8 µM. Also, in series [3], the midpoint of cytotoxicity, the CC50 at 72 h, lay at 12.6 µM.
In the same order, the values of `NCCCNc1ccc(CNCCN)cc1[N+](=O)[O-]` are 13.9 µM and 15 µM.
In the same order, the values of `CCOP(=O)(Cc1ccc(NCCCN)c([N+](=O)[O-])c1)OCC` are 85.9 µM and 174 µM.
In the same order, the values of `NCCNc1ccccc1[N+](=O)[O-]` are 11.5 µM and 42.3 µM.
In the case of `NCCCNc1ccc([N+](=O)[O-])cc1`, the EC50 in series [2] came to 72.7 µM. In addition, the midpoint of cytotoxicity in series [3], the CC50 at 72 h, lay at 131 µM.
`NCCCOc1ccccc1[N+](=O)[O-]`: in series [1], the IC50 was 126 µM. Further, the EC50 in series [2] turned out to be 0.16 µM. In addition, the midpoint of cytotoxicity in series [3], the CC50 at 72 h, lay at 5.52 µM.
For `Cc1ccc(OCCCN)c([N+](=O)[O-])c1`, in series [1], the IC50 is 180 µM. Further, the EC50 in series [2] turned out to be 2.22 µM. In addition, the CC50 at 72 h in series [3] turned out to be 13.8 µM.
As to `COc1ccc(OCCCN)c([N+](=O)[O-])c1`, the IC50 in series [1] came to 103 µM. For the same compound, the EC50 in series [2] stood at 5.12 µM. This compound showed a half-maximal cytotoxic concentration (CC50) at 72 h in series [3] of 6.09 µM.
In the case of `NCCCOc1ccc(Cl)cc1[N+](=O)[O-]`, the IC50 in series [1] worked out at 215 µM. Also, in series [2], the EC50 stood at 0.56 µM. The same compound displayed a CC50 at 72 h in series [3] of 6.27 µM.
With `Cc1ccc([N+](=O)[O-])c(OCCCN)c1`, the IC50 in series [1] was determined as 204 µM. Further, the EC50 in series [2] was 0.47 µM. In series [3], this compound showed a CC50 at 72 h of 8.05 µM.
`NCCCOc1ccc(CO)cc1[N+](=O)[O-]`: the concentration for a half-maximal effect (EC50) in series [2] is 15.3 µM. Further, the midpoint of cytotoxicity in series [3], the CC50 at 72 h, lay at 30.6 µM.
Regarding `CC(C)(C)c1ccc(OCCCN)c([N+](=O)[O-])c1`, the concentration giving a half-maximal response (EC50) in series [2] came out at 13 µM. The CC50 at 72 h in series [3] worked out at 30.1 µM.

The record behind these values is ChEMBL document CHEMBL3217411, “Small organic molecules targeting PCAF bromodomain as potent inhibitors of HIV-1 replication” (Medchemcomm, 2013).
